Measurements published in article PMC4332533 (Neuropharmacology, 2014).
Values joined by “and” are separate entries in the source; they are usually repeats but may differ in a detail not shown here. Equal values may be shown once. Blank lines part the entries; values can stand above or below the compound they belong to.

How the values were obtained:
[1] = target: T1, α3E173Cβ2R46C receptor (Rattus norvegicus, UniProt P04757+P12390, E200C/R46C); assay: Disulfide cross-linking experiments; format: cell-based; conditions: H2O2 alone (Supplemental Fig. S4)
T1 sequence (P04757 26-499 E200C): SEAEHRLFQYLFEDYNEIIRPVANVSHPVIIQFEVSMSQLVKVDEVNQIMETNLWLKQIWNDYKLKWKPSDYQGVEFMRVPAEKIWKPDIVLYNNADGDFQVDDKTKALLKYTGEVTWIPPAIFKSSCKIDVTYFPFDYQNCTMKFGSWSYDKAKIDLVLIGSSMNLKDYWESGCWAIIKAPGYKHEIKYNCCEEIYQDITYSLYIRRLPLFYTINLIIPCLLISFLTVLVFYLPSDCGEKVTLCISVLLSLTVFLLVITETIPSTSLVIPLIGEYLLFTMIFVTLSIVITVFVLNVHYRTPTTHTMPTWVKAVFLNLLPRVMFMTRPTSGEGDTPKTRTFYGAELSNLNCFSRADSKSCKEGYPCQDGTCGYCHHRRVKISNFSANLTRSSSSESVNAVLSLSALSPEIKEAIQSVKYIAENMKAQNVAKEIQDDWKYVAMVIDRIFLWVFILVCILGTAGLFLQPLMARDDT
T1 sequence (P12390 25-500 R46C): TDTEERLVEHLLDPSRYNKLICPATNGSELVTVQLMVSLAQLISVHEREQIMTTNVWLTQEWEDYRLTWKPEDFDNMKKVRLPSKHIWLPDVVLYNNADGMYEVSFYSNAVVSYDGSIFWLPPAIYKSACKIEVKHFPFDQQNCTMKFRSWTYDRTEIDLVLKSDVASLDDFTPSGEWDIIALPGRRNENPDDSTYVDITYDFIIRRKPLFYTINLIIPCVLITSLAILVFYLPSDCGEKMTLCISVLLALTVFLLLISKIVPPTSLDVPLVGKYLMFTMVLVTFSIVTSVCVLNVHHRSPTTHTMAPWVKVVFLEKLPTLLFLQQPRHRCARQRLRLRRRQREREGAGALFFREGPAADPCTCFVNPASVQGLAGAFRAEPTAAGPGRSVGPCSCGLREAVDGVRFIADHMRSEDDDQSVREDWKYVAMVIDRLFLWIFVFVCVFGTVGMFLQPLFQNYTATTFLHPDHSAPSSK

[2] = target: T2, α3Y168Cβ2D190C receptor (Rattus norvegicus, UniProt P04757+P12390, D216C/Y195C); assay: Disulfide cross-linking experiments; format: cell-based
T2 sequence (P04757 26-499 Y195C): as the sequence (P04757 26-499 E200C) above, with Y170C, C175E counted along it
T2 sequence (P12390 25-500 D216C): as the sequence (P12390 25-500 R46C) above, with C22R, D192C counted along it

[3] = target: T3, α3S125Cβ2Q39C receptor (Rattus norvegicus, UniProt P04757+P12390, Q65C/S152C); assay: Disulfide cross-linking experiments; format: cell-based
T3 sequence (P04757 26-499 S152C): as the sequence (P04757 26-499 E200C) above, with S127C, C175E counted along it
T3 sequence (P12390 25-500 Q65C): as the sequence (P12390 25-500 R46C) above, with C22R, Q41C counted along it

[4] = target: wild type α3β2 receptor (Rattus norvegicus, UniProt P04757+P12390); assay: Disulfide cross-linking experiments; format: cell-based; conditions: 5 min 4.4 mM H2O2 alone; 300 µM ACh ± 10 µM Mor
[5] = target: T4, α3Q37Cβ2A127C receptor (Rattus norvegicus, UniProt P04757+P12390, A153C/Q64C); assay: Disulfide cross-linking experiments; format: cell-based; conditions: 4.4 mM H2O2 alone or with 100 µM ACh + 10 µM Mor; 1 mM ACh, 10 µM Mor (Fig. 7)
T4 sequence (P04757 26-499 Q64C): as the sequence (P04757 26-499 E200C) above, with Q39C, C175E counted along it
T4 sequence (P12390 25-500 A153C): as the sequence (P12390 25-500 R46C) above, with C22R, A129C counted along it

[6] = target: T5, α3S125Cβ2 receptor (Rattus norvegicus, UniProt P04757+P12390, S152C); assay: Disulfide cross-linking experiments; format: cell-based; conditions: H2O2 oxidation treatment (Supplemental Fig. S3C)
[7] = target: T3, α3S125Cβ2Q39C receptor; assay: Macroscopic evoked currents, two-electrode voltage-clamp, Xenopus laevis oocytes
[8] = target: α3S125Yβ2A127Y receptor (Rattus norvegicus, UniProt P04757+P12390, A153Y/S152Y); assay: as above; format: cell-based; conditions: ACh alone
[9] = target: α3Q37Cβ2 receptor (Rattus norvegicus, UniProt P04757+P12390, Q64C); assay: as above; format: cell-based; conditions: ACh alone; Hill fit
[10] = target: α3β2R46V receptor (Rattus norvegicus, UniProt P04757+P12390, R72V); assay: as above; format: cell-based; conditions: ACh alone; Hill fit
[11] = target: α3E173Cβ2 receptor (Rattus norvegicus, UniProt P04757+P12390, E200C); assay: as above; format: cell-based; conditions: ACh alone; Hill fit
[12] = target: T2, α3Y168Cβ2D190C receptor; assay: as above; format: cell-based; conditions: ACh alone; Hill fit; naive oocytes
[13] = target: α3E173Aβ2R46V receptor (Rattus norvegicus, UniProt P04757+P12390, E200A/R46V); assay: as above; format: cell-based
α3E173Aβ2R46V receptor, sequence (P04757 26-499 E200A): as the sequence (P04757 26-499 E200C) above, with C175A counted along it
α3E173Aβ2R46V receptor, sequence (P12390 25-500 R46V): as the sequence (P12390 25-500 R46C) above, with C22V counted along it

[14] = target: α3β2R46C receptor (Rattus norvegicus, UniProt P04757+P12390, R72C); assay: as above; format: cell-based; conditions: ACh alone; Hill fit
[15] = target: α3E173Aβ2 receptor (Rattus norvegicus, UniProt P04757+P12390, E200A); assay: as above; format: cell-based; conditions: ACh alone; Hill fit
[16] = target: α3S125Yβ2W149A receptor (Rattus norvegicus, UniProt P04757+P12390, S152Y/W175A); assay: as above; format: cell-based; conditions: ACh alone
[17] = target: α3β2Q39C receptor (Rattus norvegicus, UniProt P04757+P12390, Q65C); assay: as above; format: cell-based
[18] = target: α3β2D190Q receptor (Rattus norvegicus, UniProt P04757+P12390, D216Q); assay: as above; format: cell-based; conditions: ACh alone; Hill fit
[19] = target: α3Y168Fβ2D190Q receptor (Rattus norvegicus, UniProt P04757+P12390, D216Q/Y195F); assay: as above; format: cell-based; conditions: ACh alone
[20] = target: α3Y168Fβ2 receptor (Rattus norvegicus, UniProt P04757+P12390, Y195F); assay: as above; format: cell-based; conditions: ACh alone; Hill fit
[21] = target: α3β2D190C receptor (Rattus norvegicus, UniProt P04757+P12390, D216C); assay: as above; format: cell-based; conditions: ACh alone; Hill fit
[22] = target: T1, α3E173Cβ2R46C receptor; assay: as above; format: cell-based
[23] = target: T5, α3S125Cβ2 receptor; assay: as above; format: cell-based; conditions: ACh alone; Hill fit
[24] = target: α3β2A127Y receptor (Rattus norvegicus, UniProt P04757+P12390, A153Y); assay: as above; format: cell-based; conditions: ACh alone; Hill fit
[25] = target: T4, α3Q37Cβ2A127C receptor; assay: as above; format: cell-based; conditions: ACh alone
[26] = target: α3β2W149A receptor; conditions: read-out: EC50 (ACh Activation); ACh alone; Hill fit; cited from earlier work
[27] = target: α3Y168Cβ2 receptor (Rattus norvegicus, UniProt P04757+P12390, Y195C); assay: Macroscopic evoked currents, two-electrode voltage-clamp, Xenopus laevis oocytes; format: cell-based; conditions: ACh alone; Hill fit
[28] = target: α3β2A127C receptor (Rattus norvegicus, UniProt P04757+P12390, A153C); assay: as above; format: cell-based; conditions: ACh alone; Hill fit
[29] = thermodynamic cycle Ω from EC50s, ACh alone, location M4

change of currents upon oxidation [1]: significantly increased currents | reduction of evoked currents following oxidation ([2]; H2O2 treatment (abstract)): up to 50% | Ioxidation/Icontrol, final fraction of current remaining at long times ([2]; oxidation onset kinetics (Supplemental Fig. S2A)): 0.61 ± 0.05 | decrease of currents evoked by ACh, ACh + Mor and Mor alone upon oxidation ([3]; 4.4 mM H2O2 alone, 300 µM ACh, 300 µM ACh + 10 µM Mor, 10 µM Mor (Fig. 6)): 62–89% | decrease of IACh upon oxidation ([3]; 5 min 4.4 mM H2O2 alone, current evoked by 300 µM ACh): 60% | decrease of IACh+Mor upon oxidation ([3]; 5 min 4.4 mM H2O2 alone, current evoked by 300 µM ACh + 10 µM Mor): 80% and 90% | effect of oxidizing treatment on evoked currents [4]: unaffected | change of currents evoked by ACh alone, ACh + Mor and Mor alone upon oxidation [5]: all increased | change in evoked currents upon oxidation [6]: no changes
Compound: OO [H2O2]

nH (ACh Activation) ([7]; ACh alone, Hill fit, naive oocytes): 0.66 ± 0.09 [3–7] | decrease in EC50 for ACh activation vs wild type ([7]; from Table 2): 60 fold | Ω(ACh) ([7]; thermodynamic cycle Ω from EC50s, ACh alone, location A2): 0.16 | nH (ACh Activation) ([8]; Hill fit): 1.06 ± 0.19 [3] | Ω(ACh) ([8]; thermodynamic cycle Ω from EC50s, location A2/M3): 3.2 | nH (ACh Activation) [9]: 1.67 ± 0.44 [4] | nH (ACh Activation) [10]: 0.92 ± 0.14 [5–7] | nH (ACh Activation) [11]: 1.16 ± 0.12 [7] | nH (ACh Activation) [12]: 0.68 ± 0.08 [10] | Iaverage evoked by ACh ([13]; 800 µM ACh, n = 8): 990 ± 130 nA | nH (ACh Activation) ([13]; ACh alone, Hill fit): 0.82 ± 0.06 [7–8] | Ω(ACh) [13, 29]: 15 | nH (ACh Activation) [14]: 0.88 ± 0.13 [5] | nH (ACh Activation) [15]: 1.77 ± 0.26 [3–6] | nH (ACh Activation) ([16]; Hill fit): 0.61 ± 0.10 [6] | Ω(ACh) ([16]; thermodynamic cycle Ω from EC50s, location A2): 0.98 | nH (ACh Activation) ([17]; ACh alone, Hill fit): 0.78 ± 0.12 [4] | increase in EC50 for ACh activation vs wild type ([17]; from Table 2): 2 fold | nH (ACh Activation) [18]: 1.00 ± 0.15 [8] | nH (ACh Activation) ([19]; Hill fit): 0.83 ± 0.09 [11] | Ω(ACh) ([19]; thermodynamic cycle Ω from EC50s, location M1): 18 | nH (ACh Activation) [20]: 0.61 ± 0.04 [12] | nH (ACh Activation) [21]: 1.05 ± 0.14 [9] | Iaverage evoked by ACh ([22]; 2 mM ACh, n = 8, one successful expression attempt): 60 ± 10 nA | nH (ACh Activation) ([22]; ACh alone, Hill fit): 0.85 ± 0.10 [5–6] | Ω(ACh) [22, 29]: 2.4 | nH (ACh Activation) [23]: 0.64 ± 0.13 [5–7] | nH (ACh Activation) [24]: 1.46 ± 0.20 [5] | nH (ACh Activation) ([25]; Hill fit, naive oocytes): 0.97 ± 0.13 [6] | Ω(ACh) ([25]; thermodynamic cycle Ω from EC50s, location M3): 0.64 | nH (ACh Activation) [27]: 0.70 ± 0.11 [11] | nH (ACh Activation) [28]: 2.09 ± 0.34 [4]
Compound: CC(=O)OCC[N+](C)(C)C [ACh, acetylcholine]
EC50 [26]: 40 ± 6 µM
